Measured values published in patent EP1059033A1, “INDUSTRIAL ANTIBACTERIAL/ANTIFUNGAL AGENTS, ALGICIDES AND ANTI-BIOLOGICAL ADHESION AGENTS CONTAINING BENZYLAMINES” (Nissan Chemical Industries, Ltd., priority 1998, dated 1999).
In brackets after ≈: the same amount, converted by molar mass. Where two headings read alike, the source gives them in different places.

How the values were obtained:
Assay type in all cases: cell-based
[1] = test system: freshwater blue-green alga (Microcystis aeruginosa); assay: Inhibition of propagation of freshwater algae (Example 6); conditions: 500ppb
Protocol: (§1) A predetermined amount each of the compounds of the invention was dissolved in a culture medium containing 10^5 /ml of a freshwater alga at a logarithmic growth phase to prepare samples having a concentration of the compound of the invention in the medium of 500 ppb and 50 ppb respectively. A shaking culture at 100 rpm was performed for […] under continuous illumination at 20±2 °C for freshwater diatom and at 23±2 °C for other algae.
(§2) After 72 hours and 168 hours, the […] of cells was measured using a hemacytometer to obtain propagation rate. The propagation inhibiting rate was calculated from comparison with the non-treated lot. Symbols in the tables mean the followings; • A: freshwater green alga (Chlorella pyrenoidosa), • B: freshwater blue-green alga (Microcystis aeruginosa), • C: freshwater diatom (Diatoma elongatum), • D: freshwater green alga (Scenedesmus pannonicus).

[2] = test system: freshwater green alga (Chlorella pyrenoidosa); assay: as above; conditions: Auxenochlorella pyrenoidosa, 500ppb
Protocol: as §1, §2

[3] = test system: freshwater diatom (Diatoma elongatum); assay: as above; conditions: Diatoma tenuis; for inhibition at 0.05 ppm: 50ppb; for inhibition at 0.5 ppm: 500ppb
Protocol: as §1, §2

[4] = test system: freshwater green alga (Scenedesmus pannonicus); assay: as above; conditions: Desmodesmus pannonicus, 500ppb
Protocol: as §1, §2

[5] = test system: Trichophyton mentagrophytes; assay: Agar dilution MIC (Example 2); conditions: 168 h, agar plate, 27 °C, 7 days
Protocol: (§3) Series of diluted samples (20000, 10000, 5000, 2500, 2000, 1250, 625, 313, 156, 78, 39, 20, 10, 5, 2.5, 1.25 mg/l) of the compounds of the invention were prepared using dimethylsulfoxide. A sensitive culture medium-N (Nissui Seiyaku Co.) was used for bacteria and a potato dextrose agar culture medium (Nissui Seiyaku Co.) was used for fungi. 0.5 ml of each sample was added to and mixed with 9.5 ml of the culture medium, poured into a Petri dish and solidified to obtain a plate. As a result, the concentration of the compounds of the invention in the agar culture medium were 1000, 500, 250, 125, 100, 62.5, 31.3, 15.6, 7.8, 3.9, 2.0, 1.0, 0.5, 0.25, 0.125, 0.062 mg/l. The bacterium inoculated were cultured in a bouillon for the assay of sensitivity (Nissui Seiyaku Co.) at 37 °C for 20 hours, and the fungi were cultured in the potato dextrose agar culture medium (Nissui Seiyaku Co.) for 10 days and then a 10^6 CFU/ml suspension was prepared from each of them. A test bacteria or fungi suspension was streaked on an agar plate containing the compound of the present invention with platinum wire loop, and the agar plate was cultured at 37±1 °C for 18 to 20 hours for bacteria or at 27 °C for 7 days for fungi. A concentration at which no growth was seen was taken as minimum inhibitory concentration [MIC(mg/l)]. Symbols in the table mean the followings; • A: Bacillus subtilis, • B: Trichophyton mentagrophytes, • C: Rhodotorula mucilaginosa.

[6] = test system: Trichophyton mentagrophytes; conditions: 72 h, 100 ppm
Protocol: 31.3 ml of Trichophyton mentagrophytes to be tested was added to 125 ml of a potato dextrose agar culture medium (Nissui Seiyaku Co.). The medium was stirred not to foam the solutions, poured into plates uniformly and solidified.
Thereafter, predetermined amounts of the compounds of the invention were weighted and diluted with acetone to predetermined concentrations.
Paper disks were impregnated with samples containing predetermined amounts of the compounds of the invention, laid on a filter, dried with air and placed on a plate containing test microbe at equal intervals.
Trichophyton mentagrophytes was cultured at 28 °C for 3 days in a thermostatic chamber and the diameter of each inhibiting zone was measured to evaluate the activity of each compound. Symbols in the table mean the followings; • A: Trichophyton mentagrophytes, • ++: strongly inhibiting zone (equal to or more than 21 mm) is observed, • +: inhibiting zone (10 to 20 mm) is observed, • -: no inhibiting zone is observed.

[7] = test system: freshwater green alga (Selenastrum capricornutum); assay: Inhibition of propagation of freshwater green alga (Example 4); conditions: after 72 hours, cell number vs non-treated lot; for inhibition at 0.05 ppm: 50ppb, read-out: Propagation inhibiting rate(%) 50ppb; for inhibition at 0.5 ppm: 500ppb, read-out: Propagation inhibiting rate(%) 500ppb
Protocol: A predetermined amount of each of the compounds of the invention was dissolved in a culture medium containing 10^5 /ml of a freshwater green alga (Selenastrum capricornutum) at a logarithmic growth phase to prepare samples having a concentration of the compound of the invention in the medium of 500 ppb and 50ppb respectively. The samples were stationary cultured at 23±1 °C for […] under continuous illumination.
After 72 hours, the number of cells was measured using a hemacytometer to obtain propagation rate. The propagation inhibiting rate was calculated from comparison with the non-treated lot.

Aspergillus niger = assay: Agar dilution MIC (Example 3); conditions: 168 h, agar plate, 27 °C, 7 days
Protocol: (§4) Series of diluted samples (20000, 10000, 5000, 2500, 1250, 625, 313, 156, 78, 39 mg/l) of the compounds of the invention were prepared using dimethylsulfoxide. A sensitive culture medium-N (Nissui Seiyaku Co.) was used for bacteria and a potato dextrose agar culture medium (Nissui Seiyaku Co.) was used for fungi. 0.5 ml of each sample was added to and mixed with 9.5 ml of the culture medium, poured into a Petri dish and solidified to obtain a plate. As a result, the concentration of the compounds of the invention in the agar culture medium were 1000, 500, 250, 125, 62.5, 31.3, 15.6, 7.8, 3.9, 2.0 mg/l. The bacterium inoculated were cultured in a bouillon for the assay of sensitivity (Nissui Seiyaku Co.) at 37 °C for 20 hours, and the fungi were cultured in the potato dextrose agar culture medium (Nissui Seiyaku Co.) for 10 days and then a 10^6 CFU/ml suspension was prepared from each of them. A test bacteria or fungi suspension was streaked on an agar plate containing the compound of the present invention with platinum wire loop, and the agar plate was cultured at 37±1 °C for 18 to 20 hours for bacteria or at 27 °C for 7 days for fungi. A concentration at which no growth was seen was taken as minimum inhibitory concentration (MIC). Symbols in the tables mean the followings; • A: Bacillus subtilis, • B: Trichophyton mentagrophytes, • C: Staphylococcus aureus, • D: Aspergillus niger, • E: Penicillium funiculosum, • F: Candida albicans, • G: Micrococcus luteus, • H: Corynebacterium aquaticum, • I: Chaetomium globosum, • J: Fusarium moniliforme, • K: Saccharomyces cerevisiae, • L: Rhodotorula rubra, • M: Cladosporium cladosporioides, • N: Alternaria alternata.

Rhodotorula rubra = assay: Agar dilution MIC (Example 3); conditions: 168 h, agar plate, 27 °C, 7 days
Protocol: as §4

Penicillium funiculosum = assay: Agar dilution MIC (Example 3); conditions: Talaromyces funiculosus, 168 h, agar plate, 27 °C, 7 days
Protocol: as §4

[8] = test system: Cladosporium cladosporioides; assay: Agar dilution MIC (Example 3); conditions: 168 h, agar plate, 27 °C, 7 days
Protocol: as §4

Chaetomium globosum = assay: Agar dilution MIC (Example 3); conditions: 168 h, agar plate, 27 °C, 7 days
Protocol: as §4

[9] = test system: Corynebacterium aquaticum; assay: Agar dilution MIC (Example 3); conditions: Leifsonia aquatica, agar plate, 37±1 °C, 18 to 20 hours
Protocol: as §4

Saccharomyces cerevisiae = assay: Agar dilution MIC (Example 3); conditions: 168 h, agar plate, 27 °C, 7 days
Protocol: as §4

Bacillus subtilis = assay: Agar dilution MIC (Example 2); conditions: agar plate, 37±1 °C, 18 to 20 hours
Protocol: as §3

Rhodotorula mucilaginosa = assay: Agar dilution MIC (Example 2); conditions: 168 h, agar plate, 27 °C, 7 days
Protocol: as §3

[10] = test system: seawater diatom [Nitzschia closterium]; assay: Inhibition of propagation of seawater diatom (Example 5); conditions: Cylindrotheca closterium, 72 h, read-out: Propagation inhibiting rate(%) 500ppb
Protocol: A predetermined amount of each of the compounds of the invention was dissolved in culture media containing 10^5 /ml of a seawater diatom [Nitzschia closterium] at a logarithmic growth phase to prepare samples having a concentration of the compound in the medium of 500 ppb. The samples were stationary cultured at 22±1 °C for […] under continuous illumination.
After 72 hours, cells were collected by centrifugation and disrupted by addition of methanol to extract chlorophyll, and the amount of chlorophyll was measured from absorbance using a spectrophotometer to obtain propagation rate. The propagation inhibiting rate was calculated from comparison with the non-treated lot.

Fusarium moniliforme = assay: Agar dilution MIC (Example 3); conditions: Fusarium verticillioides, 168 h, agar plate, 27 °C, 7 days
Protocol: as §4

[11] = 72hr, read-out: Propagation inhibiting rate(%) 500ppb 72hr
[12] = 168hr, read-out: Propagation inhibiting rate(%) 500ppb 168hr
[13] = 168hr, read-out: Propagation inhibiting rate (%) 500ppb 168hr
[14] = 72hr, read-out: Propagation inhibiting rate (%) 500ppb 72hr

SMILES	MIC [5] [mg/L]	MIC (Penicillium funiculosum) [mg/L]	MIC [8] [mg/L]	MIC (Chaetomium globosum) [mg/L]	MIC [9] [mg/L]	MIC (Saccharomyces cerevisiae) [mg/L]	inhibition at 0.5 ppm [4, 13] [%]	Judgment (Target bacteria: A) [6]	inhibition at 0.05 ppm [7] [%]	inhibition at 0.5 ppm [7] [%]	inhibition at 0.5 ppm [2, 12] [%]	inhibition at 0.5 ppm [4, 14] [%]	other results
CC(c1ccccc1Cl)N(C)Cc1ccc(C(C)(C)C)cc1 (stereo not shown) [Compound 9]	0.5 (≈ 1.58 µM)	–	–	–	–	–	85	++ (strongly inhibiting zone (equal to or more than 21 mm) is observed)	59	94	–	–	inhibition at 0.5 ppm [1, 11]: 97%; inhibition at 0.5 ppm [1, 12]: 98%; inhibition at 0.5 ppm [2, 11]: 70%; inhibition at 0.05 ppm ([3]; 72hr, read-out: Propagation inhibiting rate(%) 50ppb 72hr): 88%; inhibition at 0.05 ppm ([3]; 168hr, read-out: Propagation inhibiting rate(%) 50ppb 168hr): 94%; inhibition at 0.5 ppm [3, 11]: 76%; inhibition at 0.5 ppm [3, 12]: 100%
CC(C)Cc1ccc(CN(C)Cc2cccc3ccccc23)cc1 [Compound 32]	< 1	–	–	–	–	–	–	–	–	86	75	83	–
CC(C)(C)c1ccc(CNCc2ccc(Cl)c(Cl)c2)cc1 [Compound 34]	7.8 (≈ 24.2 µM)	–	–	–	–	–	–	–	–	98	–	–	MIC (Rhodotorula mucilaginosa): 62.5 mg/L (≈ 194 µM); inhibition at 0.5 ppm [10]: 100%

More lines, main results first:

MIC [5] [mg/L]	MIC (Penicillium funiculosum) [mg/L]	MIC [8] [mg/L]	MIC (Chaetomium globosum) [mg/L]	MIC [9] [mg/L]	MIC (Saccharomyces cerevisiae) [mg/L]	SMILES	inhibition at 0.5 ppm [4, 13] [%]	Judgment (Target bacteria: A) [6]	inhibition at 0.05 ppm [7] [%]	inhibition at 0.5 ppm [7] [%]	inhibition at 0.5 ppm [2, 12] [%]	inhibition at 0.5 ppm [4, 14] [%]	other results
–	31.3 (≈ 106 µM)	63 (≈ 213 µM)	63 (≈ 213 µM)	31.3 (≈ 106 µM)	125 (≈ 423 µM)	Cc1ccc(C)c(CN(C)Cc2ccc(C(C)(C)C)cc2)c1 [Compound 8]	86	++ (strongly inhibiting zone (equal to or more than 21 mm) is observed)	–	90	86	72	MIC (Aspergillus niger): 7.8 mg/L (≈ 26.4 µM); MIC (Rhodotorula rubra): 125 mg/L (≈ 423 µM)
0.25 (≈ 0.743 µM)	–	–	–	–	–	CN(Cc1ccc(C(C)(C)C)cc1)Cc1c(Cl)cccc1Cl [Compound 19]	–	–	–	–	–	–	MIC (Bacillus subtilis): 15.6 mg/L (≈ 46.4 µM)
2 (≈ 6.77 µM)	63 (≈ 213 µM)	125 (≈ 423 µM)	125 (≈ 423 µM)	31.3 (≈ 106 µM)	125 (≈ 423 µM)	Cc1ccc(CN(C)Cc2ccc(C(C)(C)C)cc2)cc1C [Compound 23]	–	–	65	97	–	–	MIC (Fusarium moniliforme): 125 mg/L (≈ 423 µM)
